{"source": "patent US20250223618A1", "about": "“METHOD FOR PRODUCING MULTI-HYDROXY DERIVATIVES OF POLYUNSATURATED FATTY ACIDS” (KOREA RESEARCH INSTITUTE OF BIOSCIENCE AND BIOTECHNOLOGY, priority 2018, published 2025)", "key": {"[1]": {"tested_on": "mammospheres of the human beast cancer-derived cancer stem cells", "assay": "Proliferation of mammospheres of breast cancer-derived cancer stem cells", "assay_type": "cell-based", "conditions": "treated at the concentration of 0 to 60 μM; FIG. 10A/10B", "method": "(§1) The purified derivatives were treated to human beast cancer cells and human beast cancer-derived cancer stem cells and then the effects thereof were confirmed.\nThe human breast cancer cells MDA-MB-231 were incubated at a density of 0.5 to 1×10^4 cells in a ultra-low attachment 6-well plate containing 2 ml of a Complete MammoCult™ medium (StemCell Technologies, Canada) added with 4 μg/ml of heparin, 0.48 μg/ml of hydrocortisone, 100 U/ml of penicillin, and 100 μg/ml of streptomycin (carbon dioxide 5%, 37° C.) to form mammospheres of the human beast cancer-derived cancer stem cells."}, "[2]": {"tested_on": "human breast cancer cells MDA-MB-231", "assay": "Proliferation of human breast cancer cells", "assay_type": "cell-based", "conditions": "same concentration as in mammospheres (0 to 60 μM), FIG. 10A", "method": "as §1\nMore specifically, first, human breast cancer cells MDA-MB-231 (ATCC) were incubated at a density of 1×10^6 cells in a 10 cm culture dish with a DMEM medium added with 10% fetal bovine serum (FBS, Hyclone), 100 U/ml penicillin, and 100 μg/ml of streptomycin (carbon dioxide 5%, 37° C.)."}, "[3]": {"molecular_target": "Protein having amino acid sequence of SEQ ID NO: 1 (protein K9V_A296G; enzyme for producing di-hydroxy derivative of polyunsaturated fatty acids) (Phormidium nigroviride, UniProt K9VMV7, A296G)", "conditions": "pH 8.0, 20° C.", "method": "At this time, 50 mM of a sodium phosphate buffer in the case of pH 7.0, 50 mM of a Tris-HCl buffer in the case of pH 8.0, and 50 mM of a sodium borate buffer in the case of pH 9.0 to pH 11.0 were used, respectively."}, "[4]": {"molecular_target": "T1, Protein having amino acid sequence of SEQ ID NO: 2 (protein K9V; enzyme for producing tri-hydroxy or tetra-hydroxy derivative of polyunsaturated fatty acids) (Phormidium nigroviride, UniProt K9VMV7)", "T1 construct": "Ni-NTA purified", "T1 sequence (K9VMV7 1-571)": "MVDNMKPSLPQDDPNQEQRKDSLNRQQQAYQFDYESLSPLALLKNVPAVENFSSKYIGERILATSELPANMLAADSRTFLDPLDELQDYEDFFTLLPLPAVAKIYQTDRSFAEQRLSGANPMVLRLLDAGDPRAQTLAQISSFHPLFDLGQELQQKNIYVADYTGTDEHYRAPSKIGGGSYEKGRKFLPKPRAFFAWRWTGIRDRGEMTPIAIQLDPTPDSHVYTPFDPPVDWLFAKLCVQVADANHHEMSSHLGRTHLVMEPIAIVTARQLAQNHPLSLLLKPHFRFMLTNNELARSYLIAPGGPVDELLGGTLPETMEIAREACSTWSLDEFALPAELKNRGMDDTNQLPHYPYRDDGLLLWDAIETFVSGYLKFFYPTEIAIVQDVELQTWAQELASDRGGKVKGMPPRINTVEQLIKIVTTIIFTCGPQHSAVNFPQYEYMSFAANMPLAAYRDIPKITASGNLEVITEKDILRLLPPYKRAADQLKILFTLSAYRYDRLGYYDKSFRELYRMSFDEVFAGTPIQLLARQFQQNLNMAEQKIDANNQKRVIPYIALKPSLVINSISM", "assay": "Reaction rate (Km, Kcat) under optimal conditions, protein of SEQ ID NO: 2", "assay_type": "biochemical", "conditions": "pH 7.0, 30° C.", "from_the_text": "Under optimal conditions confirmed in [4-1] and [4-2] above, Km and Kcat values of the protein having the amino acid sequence of SEQ ID NO: 1 and the protein having the amino acid sequence of SEQ ID NO: 2 were examined."}, "[5]": {"assay": "Effect of pH on enzyme activity (13S-hydroxy-octadecadienoic acid formed)", "assay_type": "biochemical", "conditions": "10 KU/ml protein, 100 μM linoleic acid, 30 minutes", "method": "(§2) In the same manner as in Example [3-1], the concentration of 13S-hydroxy-octadecadienoic acid in the reaction product was measured, and relative values thereof were compared with each other."}, "[6]": {"assay": "Effect of temperature on enzyme activity (13S-hydroxy-octadecadienoic acid formed)", "assay_type": "biochemical", "conditions": "100 μM linoleic acid, pH 7, 20° C. to 50° C., 30 minutes", "method": "as §2"}}, "data": [{"molecule": "CCC(O)/C=C/C=C/C=C/C(O)C/C=C/C/C=C/C/C=C/CCC(=O)O", "note": "(stereo not shown) [di-hydroxy derivative]", "values": [{"measurement": "proliferation of the mammospheres of the beast cancer-derived cancer stem cells", "setting": "[1]", "value": "inhibited"}, {"measurement": "proliferation of the breast cancer cells", "setting": "[2]", "value": "no effect"}]}, {"molecule": "CCCCC/C=C\\C/C=C\\CCCCCCCC(=O)O", "note": "[linoleic acid]", "values": [{"measurement": "Kcat", "setting": "[3]", "value": "23.52 ± 1.0", "unit": "min⁻¹"}, {"measurement": "Km", "setting": "[3]", "value": "46.8 ± 1", "unit": "µM"}, {"measurement": "Kcat", "setting": "[4]", "value": "0.4 ± 0.02", "unit": "min⁻¹"}, {"measurement": "Km", "setting": "[4]", "value": "79.4 ± 0.8", "unit": "µM"}]}, {"molecule": "Protein having amino acid sequence of SEQ ID NO: 1: enzyme for producing a di-hydroxy derivative of polyunsaturated fatty acids, about 65 KDa, expressed in E. coli (protein, K9V_A296G, enzyme for producing a di-hydroxy derivative of polyunsaturated fatty acids, about 65 KDa, expressed in E. coli) MVDNMKPSLPQDDPNQEQRKDSLNRQQQAYQFDYESLSPLALLKNVPAVENFSSKYIGERILATSELPANMLAADSRTFLDPLDELQDYEDFFTLLPLPAVAKIYQTDRSFAEQRLSGANPMVLRLLDAGDPRAQTLAQISSFHPLFDLGQELQQKNIYVADYTGTDEHYRAPSKIGGGSYEKGRKFLPKPRAFFAWRWTGIRDRGEMTPIAIQLDPTPDSHVYTPFDPPVDWLFAKLCVQVADANHHEMSSHLGRTHLVMEPIAIVTARQLAQNHPLSLLLKPHFRFMLTNNELGRSYLIAPGGPVDELLGGTLPETMEIAREACSTWSLDEFALPAELKNRGMDDTNQLPHYPYRDDGLLLWDAIETFVSGYLKFFYPTEIAIVQDVELQTWAQELASDRGGKVKGMPPRINTVEQLIKIVTTIIFTCGPQHSAVNFPQYEYMSFAANMPLAAYRDIPKITASGNLEVITEKDILRLLPPYKRAADQLKILFTLSAYRYDRLGYYDKSFRELYRMSFDEVFAGTPIQLLARQFQQNLNMAEQKIDANNQKRVIPYIALKPSLVINSISM", "values": [{"measurement": "pH of better (optimal) enzyme activity", "setting": "[5]; pH 7 to pH 11, 25° C., FIG. 8A", "value": "~8.0"}, {"measurement": "temperature of better (optimal) enzyme activity", "setting": "[6]; 50 KU/ml protein, FIG. 9A", "value": "~20", "unit": "°C"}]}, {"molecule": "Protein having amino acid sequence of SEQ ID NO: 2: enzyme for producing a tri-hydroxy or tetra-hydroxy derivative of polyunsaturated fatty acids, about 65 KDa, expressed in E. coli (protein, enzyme (K9V), enzyme for producing a tri-hydroxy or tetra-hydroxy derivative of polyunsaturated fatty acids, about 65 KDa, expressed in E. coli) MVDNMKPSLPQDDPNQEQRKDSLNRQQQAYQFDYESLSPLALLKNVPAVENFSSKYIGERILATSELPANMLAADSRTFLDPLDELQDYEDFFTLLPLPAVAKIYQTDRSFAEQRLSGANPMVLRLLDAGDPRAQTLAQISSFHPLFDLGQELQQKNIYVADYTGTDEHYRAPSKIGGGSYEKGRKFLPKPRAFFAWRWTGIRDRGEMTPIAIQLDPTPDSHVYTPFDPPVDWLFAKLCVQVADANHHEMSSHLGRTHLVMEPIAIVTARQLAQNHPLSLLLKPHFRFMLTNNELARSYLIAPGGPVDELLGGTLPETMEIAREACSTWSLDEFALPAELKNRGMDDTNQLPHYPYRDDGLLLWDAIETFVSGYLKFFYPTEIAIVQDVELQTWAQELASDRGGKVKGMPPRINTVEQLIKIVTTIIFTCGPQHSAVNFPQYEYMSFAANMPLAAYRDIPKITASGNLEVITEKDILRLLPPYKRAADQLKILFTLSAYRYDRLGYYDKSFRELYRMSFDEVFAGTPIQLLARQFQQNLNMAEQKIDANNQKRVIPYIALKPSLVINSISM", "values": [{"measurement": "pH of better (optimal) enzyme activity", "setting": "[5]; pH 6 to pH 11, 25° C., FIG. 8B", "value": "~8.0"}, {"measurement": "temperature of better (optimal) enzyme activity", "setting": "[6]; 10 KU/ml protein, FIG. 9B", "value": "~30", "unit": "°C"}]}]}
